The values that follow come from patent US20250206732A1, “COMPOUNDS AND METHODS FOR THE TARGETED DEGRADATION OF KRAS” (Arvinas Operations, Inc., priority 2022, published 2025).

The target of the assay is T1, AsPC-1 HiBiT-KRASG12D (Homo sapiens, UniProt P01116, G12D).
T1 construct: insert the HiBiT tag onto the N-terminus of one or more of the endogenous KRAS alleles; endogenous in cells; host or cells: AsPC-1 (ATCC CRL-1682), CRISPR-Cas9 knock-in clone, one tagged allele
The assay can be described thus: HiBiT degradation assay (G12D), AsPC-1 HiBiT-KRASG12D cells. It counts as cell-based. The note with it: 24 hours treatment; for Dmax: ASPC1, AsPC-1 HiBiT-KRASG12D cells, maximum degradation observed; for DC50: AsPC-1 HiBiT-KRASG12D cells, HiBiT luminescence. Put shortly: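 AsPC-1 cells (homozygous G12D) carrying a CRISPR knock-in N-terminal HiBiT tag on endogenous KRAS were treated with compounds for 24 hours at 37° C, 5% CO2, in triplicate. Alamar blue viability was read first, then cells were washed and lysed with Nano-Glo HiBiT reagent for 45 minutes before luminescence reading.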
For orientation: HiBiT is a short tag that completes a luciferase, so light tracks the accessible tagged protein.

T1 sequence (P01116 1-188 isoform P01116-2 G12D): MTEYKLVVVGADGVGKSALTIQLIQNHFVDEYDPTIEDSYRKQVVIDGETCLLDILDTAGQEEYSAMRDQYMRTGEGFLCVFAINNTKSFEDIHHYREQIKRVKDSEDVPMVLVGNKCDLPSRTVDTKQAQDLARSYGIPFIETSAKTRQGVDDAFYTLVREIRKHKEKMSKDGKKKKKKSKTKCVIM

Regarding `Cc1ncsc1-c1ccc([C@H](C)NC(=O)[C@@H]2C[C@@H](O)CN2C(=O)[C@@H](c2cc(OC[C@@H]3CC[C@]4(COc5nc(N6CC7CCC(C6)N7)c6cnc(-c7cc(O)cc(Cl)c7C7CC7)c(F)c6n5)CCCN34)no2)C(C)C)cc1` [Compound 64, (2S,4R)-1-[(2R)-2-(3-{[(3S,7aS)-7a-({[7-(3-chloro-2-cyclopropyl-5-hydroxyphenyl)-4-{3,8-diazabicyclo[3.2.1]octan-3-yl}-8-fluoropyrido[4,3-d]pyrimidin-2-yl]oxy}methyl)-hexahydro-1H-pyrrolizin-3-yl]methoxy}-1,2-oxazol-5-yl)-3-methylbutanoyl]-4-hydroxy-N-[(1S)-1-[4-(4-methyl-1,3-thiazol-5-yl)phenyl]ethyl]pyrrolidine-2-carboxamide], the greatest degradation seen (Dmax) (usually the largest share of the target that was removed) is 20 to 60% and the half-maximal degradation concentration (DC50) (usually the concentration at which degradation of the target reaches its halfway point) was below 600 nM.

Take `Cc1ncsc1-c1ccc([C@H](C)NC(=O)[C@@H]2C[C@@H](O)CN2C(=O)[C@H](c2cc(OC[C@@H]3CC[C@]4(COc5nc(N6CC7CCC(C6)N7)c6cnc(-c7cc(O)cc(Cl)c7C7CC7)c(F)c6n5)CCCN34)no2)C(C)C)cc1` [Compound 65, (2S,4R)-1-[(2S)-2-(3-{[(3S,7aS)-7a-({[7-(3-chloro-2-cyclopropyl-5-hydroxyphenyl)-4-{3,8-diazabicyclo[3.2.1]octan-3-yl}-8-fluoropyrido[4,3-d]pyrimidin-2-yl]oxy}methyl)-hexahydro-1H-pyrrolizin-3-yl]methoxy}-1,2-oxazol-5-yl)-3-methylbutanoyl]-4-hydroxy-N-[(1S)-1-[4-(4-methyl-1,3-thiazol-5-yl)phenyl]ethyl]pyrrolidine-2-carboxamide]: the Dmax was below 20% and the DC50 lay in the range of 1000 to 3000 nM.

As for `CCc1cccc2cc(O)cc(-c3ncc4c(N5CC6CCC(C5)N6)nc(OC[C@]56CCCN5[C@H](COC(=O)N5CCN(c7cc([C@H](C(=O)N8C[C@H](O)C[C@H]8C(=O)N[C@@H](C)c8ccc(C#N)cc8)C(C)C)on7)CC5)CC6)nc4c3F)c12` [Compound 66, [(3S,7aR)-7a-{[(4-{3,8-diazabicyclo[3.2.1]octan-3-yl}-7-(8-ethyl-3-hydroxynaphthalen-1-yl)-8-fluoropyrido[4,3-d]pyrimidin-2-yl)oxy]methyl}-hexahydro-1H-pyrrolizin-3-yl]methyl 4-{5-[(2R)-1-[(2S,4R)-2-{[(1S)-1-(4-cyanophenyl)ethyl]carbamoyl}-4-hydroxypyrrolidin-1-yl]-3-methyl-1-oxobutan-2-yl]-1,2-oxazol-3-yl}piperazine-1-carboxylate], the maximal degradation (Dmax) was 60 to 80% and the DC50 is below 600 nM.

Regarding `CCc1cccc2cc(O)cc(-c3ncc4c(N5CC6CCC(C5)N6)nc(OC[C@]56CCCN5[C@H](COC(=O)N5CCN(c7cc([C@@H](C(=O)N8C[C@H](O)C[C@H]8C(=O)N[C@@H](C)c8ccc(C#N)cc8)C(C)C)on7)CC5)CC6)nc4c3F)c12` [Compound 67, [(3S,7aR)-7a-{[(4-{3,8-diazabicyclo[3.2.1]octan-3-yl}-7-(8-ethyl-3-hydroxynaphthalen-1-yl)-8-fluoropyrido[4,3-d]pyrimidin-2-yl)oxy]methyl}-hexahydro-1H-pyrrolizin-3-yl]methyl 4-{5-[(2S)-1-[(2S,4R)-2-{[(1S)-1-(4-cyanophenyl)ethyl]carbamoyl}-4-hydroxypyrrolidin-1-yl]-3-methyl-1-oxobutan-2-yl]-1,2-oxazol-3-yl}piperazine-1-carboxylate], the 50% degradation concentration (DC50) is above 3000 nM.
